Results: patent US20220267374A1, “IMMUNITY INDUCER AND PHARMACEUTICAL COMPOSITION FOR PREVENTING OR TREATING AGING-RELATED DISEASES” (priority 2019, published 2022)
Ends that are not written are not given here.

Assays:
[1] = tested on: GPNMB-positive cells; experiment: Analysis of Gpnmb-dependent luciferase activity (in vivo IVIS imaging); parameters: species or system Gpnmb-DTR mouse; conditions: Reference Example 1; HFD-fed Gpnmb-DTR mice, DT 50 μg/kg i.p. twice (12 and 14 weeks of age), 16 weeks of age; FIG. 1B
Description: Gpnmb-DTR mouse bred by feeding normal diet or HFD for 4 weeks, and Gpnmb-DTR mouse bred by feeding HFD for 4 weeks, and then injecting DT (50 μg/kg body weight) at 2-week intervals (12 weeks of age and 14 weeks of age) intraperitoneally twice while continuing to feed HFD (16 weeks of age) were subjected to in vivo luciferase imaging analysis using the IVIS imaging system (Perkin Elmer). Mice were shaved ventrally, anesthetized with isoflurane (Wako Pure Chemicals Industries), and injected intraperitoneally with luciferin (150 mg/kg body weight) according to the manufacturer's instructions (Vivo-Glo; Promega). Luciferase activity was monitored 5 minutes after luciferin administration. Signals were analyzed using Living Image software (Perkin Elmer) to quantify luciferase activity. In FIG. 1B, “Before” is a Gpnmb-DTR mouse before HFD was fed (6 weeks of age), “HFD” is a Gpnmb-DTR mouse that was fed with HFD from 6 weeks of age and bred for 6 weeks (12 weeks of age), and “After DT” is a Gpnmb-DTR mouse that was bred by feeding HFD for 4 weeks and then injecting DT (50 μg/kg body weight) at 2-week intervals (12 weeks of age and 14 weeks of age) intraperitoneally twice while continuing to feed HFD (16 weeks of age). […]

[2] = tested on: GPNMB protein; experiment: Antibody titer by ELISA in plasma of vaccinated mice; assay type: in vivo, C57BL/6 mice; conditions: vs control vaccine group; KLH-bound peptide 20 μg with Titer Max Gold s.c. at 8 weeks of age, HFD-fed mice; plasma up to 6 weeks; FIG. 2A
Description: First, the antibody titers of the obtained two peptide vaccines were examined. Peptide vaccine 1 or peptide vaccine 2 (20 μg) and Titer Max Gold adjuvant (Titer Max USA) conjugated with KLH as carrier protein for induction of cytotoxic antibody were mixed in two syringes according to the manufacturer's protocol for emulsification. Subsequently, eight-week-old C57BL/6 mice fed with HFD from 4 weeks of age were subcutaneously injected with KLH-binding antigen peptide (20 μg) with a Titer Max Gold adjuvant to induce cytotoxic antibodies. C57BL/6 mice in the control group were subcutaneously injected with a KLH solution (hereinafter, referred to as “control vaccine”) mixed with Titer Max Gold in an equal amount. Plasma was collected from the tail vein of each mouse immediately after administration of the peptide vaccine and after 2, 4, and 6 weeks for antibody titer analysis. The antibody titer produced by injection of each peptide was measured by ELISA. Specifically, first, a 96-well microtiter plate (Nunc-Immuno MicroWell 96-well solid plate, Thermo Scientific) was coated using a carbonate buffer containing peptide vaccine 1 or peptide vaccine 2 bonded to bovine serum albumin (BSA). […] After reacting with the TMB substrate (Sigma-Aldrich, T0440), the optical density was measured at 450 nm (0D450) using a microtiter plate reader (iMark microplate reader, Bio-Rad).

[3] = Metabolic test (glucose tolerance test and insulin tolerance test); assay type: in vivo, C57BL/6 mice; conditions: HFD-fed mice, 16 weeks of age, s.c. vaccination at 8 weeks of age; compared to control vaccine; FIG. 2I
Description: Mice were bred individually from 1 week before the test. On the day of the glucose tolerance test (GTT), mice were fasted for 6 hours, followed by intraperitoneal injection of glucose at a dose of 1 g/kg (body weight) in the early afternoon. For the insulin tolerance test (ITT), mice were intraperitoneally administered with human insulin (1 U/kg (body weight)). After administration of glucose or insulin, tail venous blood was collected 0, 15, 30, 60 and 120 minutes later, and the blood glucose level was measured with a glucose analyzer (Sanwa Chemical Research Institute).
A metabolic test was performed using the same method as in “5.” of Reference Example 1, except that C57BL/6 mice (16 weeks of age) bred by feeding HFD from 4 weeks of age and administered with peptide vaccine 1, peptide vaccine 2, or control vaccine by subcutaneous injection at a time point of 8 weeks of age were used. In FIG. 2I, “Cont vaccine” is a C57BL/6 mouse administered with a control vaccine, “Gpnmb vaccine 1” is a C57BL/6 mouse administered with peptide vaccine 1, and “Gpnmb vaccine 2” is a C57BL/6 mouse administered with peptide vaccine 2.

diphtheria toxin [DT, reference compound]
abdominal luciferase activity (Gpnmb-dependent) [1]: attenuated

RSQHLRFPDR (also: KLH conjugate; listed as Mus musculus) [peptide vaccine 2, peptide of positions 150 to 159 of mouse GPNMB protein]
antibody titer against GPNMB protein [2]: slightly higher
metabolic abnormality induced by HFD intake (glucose tolerance test and insulin tolerance test) [3]: significantly improved
